Reference: paper PMC10450149, “Antennal transcriptome analysis of odorant-binding proteins and characterization of GOBP2 in the variegated cutworm Peridroma saucia” (Frontiers in Physiology, 2023)
Where “and” joins values, the source holds several entries; their conditions need not be identical. Identical values can stand only once.

Columns and labels:
PsauGOBP1 = target: PsauGOBP1; set-up: method as in Sun et al., 2021; settings: binding to PsauGOBP1; ref Sun et al., 2021; cited from earlier work
recombinant PsauGOBP2 [1] = test: Competitive fluorescence binding assay: displacement of 1-NPN from recombinant PsauGOBP2; set-up: species or system Peridroma saucia; settings: means ± SE, n = 3; for IC50: PsauGOBP2 and 1-NPN, IC50 > 30 μM considered no binding affinity, read-out: IC50 (concentration of ligand halving the initial fluorescence value of 1-NPN); for Ki: Ki = [IC50]/(1 + [1-NPN]/K1-NPN), read-out: Ki (calculated dissociation constant)
Method: (§1) For the expression of recombinant PsauGOBP2, pET-30b containing the sequence encoding mature PsauGOBP2 was used to transform BL21 E. coli cells. Protein expression was induced by the addition of IPTG (final concentration 0.4 mM) when the OD600 value of cell culture reached about 0.8. Cells cultured for further 2–4 h at 37°C were harvested by centrifugation. PsauGOBP2 was present as inclusion bodies. 10 mL of 8 M urea and 1 mM DTT in Tris buffer (50 mM, pH 7.4) were then used to solubilise the inclusion body pellet (from 1 L of culture). The dissolved protein was dialyzed against 1 L of Tris buffer (50 mM, pH 7.4). The recombinant protein was purified on the anion exchange resins QFF, following standard protocols previously adopted for other moth OBPs ([Sun et al., 2012]; [Sun et al., 2021]).
Binding affinities of odorants to PsauGOBP2 were measured by competitive binding assays. A panel of 28 compounds (competitors) including the P. saucia female sex pheromone components Z11-16: Ac and Z9-14: Ac and 26 host plant volatiles were used in the assay. The CAS number, source, and purity of these compounds were listed in Supplementary Table S3. A solution of PsauGOBP2 and 1-NPN, both at the concentration of […], was titrated with 1 mM of each competitor (dissolved in methanol) at a final concentration of 10 µM (sex pheromones) or 20 µM (host plant volatiles). The dissociation constants (Ki) of competitors to PsauGOBP2 were calculated using the equation: Ki = [IC50]/(1 + [1-NPN]/K1-NPN), where [IC50] is the concentration of the competitor halving (50%) the initial fluorescence value (100%), [1-NPN] is the free concentration of 1-NPN, and K1-NPN is the dissociation constant of the protein-1-NPN complex.

recombinant PsauGOBP2 [2] = test: Fluorescence binding assay: titration of recombinant PsauGOBP2 with the fluorescent probe 1-NPN; set-up: species or system Peridroma saucia; settings: 2 mM protein in 50 mM Tris-HCl pH 7.4, titrated with 1-NPN to 20 µM; excitation 337 nm; means +SE, n = 3; single binding site; read-out: K1-NPN (dissociation constant of 1-NPN to PsauGOBP2)
Method: as §1
The fluorescence binding assays were conducted on a Hitachi F-2710 with a 1 cm light path quartz cuvette. To measure the affinity of the fluorescent probe 1-NPN (N-phenyl-1-naphthylamine) to PsauGOBP2, a […] solution of the protein in 50 mM Tris-HCl, pH 7.4, was titrated with aliquots of 1 mM 1-NPN in methanol to a final concentration of 20 µM. The probe was excited at 337 nm, and emission spectra were recorded between 380 and 460 nm. The dissociation constant of 1-NPN (K1-NPN) to PsauGOBP2 was obtained by processing the data with GraphPad Prism 6.0.

[3] = remaining 1-NPN fluorescence at Max Conc 20 (20 µM, host plant volatiles)
[4] = remaining 1-NPN fluorescence at Max Conc 10 (10 µM, sex pheromones)

| SMILES | Ki (PsauGOBP1) | IC50 (recombinant PsauGOBP2 [1]) | Fluorescence at max (%) (recombinant PsauGOBP2 [1]; [3]) | Kd (recombinant PsauGOBP2 [2]) | Ki (recombinant PsauGOBP2 [1]) | Fluorescence at max (%) (recombinant PsauGOBP2 [1]; [4]) |
| --- | --- | --- | --- | --- | --- | --- |
| CC(C)=CCCC(C)=CC=O (mixture of isomers) [Citral] | 5.6 µM | > 30 µM | 76 ± 5% |  |  |  |
| c1ccc(Nc2cccc3ccccc23)cc1 [1-NPN, N-phenyl-1-naphthylamine] |  |  |  | 3.2 ± 0.19 µM |  |  |
| CCC/C=C/CO [(E)-2-Hexen-1-ol, (E)-2-hexen-1-ol] |  | > 30 µM | 69 ± 7% |  |  |  |
| CCC/C=C/C=O [(E)-2-Hexenal, (E)-2-hexenal] |  | > 30 µM | 77 ± 3% |  |  |  |
| CCC/C=C/COC(C)=O [(E)-2-Hexenyl acetate, (E)-2-hexenyl acetate] |  | > 30 µM | 69 ± 3% |  |  |  |
| C=C1CC/C=C(\C)CC[C@@H]2[C@@H]1CC2(C)C [(E)-Caryophyllene, (E)-caryophyllene] |  | > 30 µM | 90 ± 3% |  |  |  |
| C=CC(=C)CC/C=C(\C)CCC=C(C)C [(E)-β-farnesene] |  | > 30 µM | 75 ± 7% |  |  |  |
| CC/C=C\CCO [(Z)-3-Hexen-1-ol, (Z)-3-hexen-1-ol] | 8.5 µM | > 30 µM | 72 ± 3% |  |  |  |
| CC/C=C\CCOC(C)=O [(Z)-3-Hexenyl acetate, (Z)-3-hexenyl acetate] | 4 µM | > 30 µM | 86 ± 2% |  |  |  |
| CC/C=C\CC1=C(C)CCC1=O [(Z)-jasmone] |  | > 30 µM | 75 ± 3% |  |  |  |
| O=Cc1ccccc1 [Benzaldehyde] | 9.4 µM | > 30 µM | 74 ± 3% |  |  |  |
| C=C(C)[C@H]1CC=C(C)CC1 [D-Limonene] |  | > 30 µM | 85 ± 5% |  |  |  |
| CCCCCCCCCC=O [Decanal] |  | > 30 µM | 73 ± 7% |  |  |  |
| CCCCCCCCCCCCO [Dodecanol] |  | 19.5 ± 0.6 µM | 49 ± 3% |  | 13 ± 0.4 µM |  |
| CC(C)=CCC/C(C)=C/CC/C(C)=C/CO [Farnesol] | 6.4 µM | > 30 µM | 100 ± 3% |  |  |  |
| CCCCCCCO [Heptanol] |  | > 30 µM | 80 ± 2% |  |  |  |
| c1ccc2[nH]ccc2c1 [Indole] |  | > 30 µM | 100 ± 8% |  |  |  |
| CC/C=C\C[C@H]1C(=O)CC[C@@H]1CC(=O)O [Jasmonic acid] |  | > 30 µM | 73 ± 5% |  |  |  |
| C=CC(C)(O)CCC=C(C)C (centres unmarked) [Linalool] |  | > 30 µM | 74 ± 6% |  |  |  |
| CC/C=C\CC1C(=O)CCC1CC(=O)OC (centres unmarked) [Methyl jasmonate] |  | > 30 µM | 70 ± 7% |  |  |  |
| COC(=O)c1ccccc1O [Methyl salicylate] |  | > 30 µM | 79 ± 2% |  |  |  |
| CCCCCCCCC=O [Nonanal] | 6.8 µM | > 30 µM | 85 ± 2% |  |  |  |
| CCCCCCCC=O [Octanal] |  | > 30 µM | 75 ± 2% |  |  |  |
| CC(=O)OCCc1ccccc1 [Phenylethyl acetate] |  | 10.5 ± 0.5 µM | 39 ± 3% |  | 6.3 ± 0.3 µM |  |
| CCCC/C=C\CCCCCCCCOC(C)=O [Z9-14: Ac] |  | 7.5 ± 0.9 µM |  |  | 4.9 µM and < 5 µM | 45 ± 3% |
| CCCC/C=C\CCCCCCCCCCOC(C)=O [Z11-16: Ac] |  | 6.5 ± 1.2 µM |  |  | 4.2 µM and < 5 µM | 41 ± 4% |
| C=CC(=C)CCC=C(C)C [β-Myrcene, β-myrcene] |  | 12 ± 0.5 µM | 45 ± 1.5% |  | 8 ± 0.3 µM |  |
| C=C/C(C)=C/CC=C(C)C [β-Ocimene, β-ocimene] |  | > 30 µM | 90 ± 4% |  |  |  |
| C=C1CCC2CC1C2(C)C (stereo not drawn) [β-Pinene, β-pinene] |  | > 30 µM | 79 ± 9% |  |  |  |
